Measured values published in PMC4886280 (The Journal of General Physiology, 2016).

Target: T1, P2X7 (Homo sapiens, UniProt Q99572)
T1 sequence (Q99572 1-595): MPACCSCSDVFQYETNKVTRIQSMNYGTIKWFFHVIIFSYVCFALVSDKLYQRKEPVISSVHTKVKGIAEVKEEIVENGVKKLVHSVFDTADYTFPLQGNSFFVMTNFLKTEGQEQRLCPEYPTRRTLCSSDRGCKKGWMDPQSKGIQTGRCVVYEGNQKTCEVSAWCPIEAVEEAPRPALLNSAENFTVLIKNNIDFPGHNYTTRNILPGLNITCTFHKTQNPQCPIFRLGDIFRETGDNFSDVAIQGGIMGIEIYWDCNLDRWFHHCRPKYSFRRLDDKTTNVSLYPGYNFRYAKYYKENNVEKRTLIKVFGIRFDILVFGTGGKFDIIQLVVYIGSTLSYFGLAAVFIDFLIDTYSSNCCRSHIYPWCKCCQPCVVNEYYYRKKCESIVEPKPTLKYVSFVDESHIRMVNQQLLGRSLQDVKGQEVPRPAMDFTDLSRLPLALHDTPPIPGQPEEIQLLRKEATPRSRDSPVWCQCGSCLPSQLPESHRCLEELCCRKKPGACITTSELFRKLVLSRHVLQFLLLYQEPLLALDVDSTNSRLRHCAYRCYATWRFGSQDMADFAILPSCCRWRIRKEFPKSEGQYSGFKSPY
Assay: whole-cell patch clamp, ATP concentration-response in low-DIC bath
Type: cell-based

EC50: 339 ± 27 µM
SMILES: Nc1ncnc2c1ncn2[C@@H]1O[C@H](COP(=O)(O)OP(=O)(O)OP(=O)(O)O)[C@@H](O)[C@H]1O [ATP]
